Experimental data reported in the Deep4Chem optical property database.
Several values for one entry are separate records, joined by “and”; a condition that tells them apart may be missing. Equal values may be shown once. Blank lines part the entries; values can stand above or below the molecule they belong to.

Experiment: solvent given as SMILES

SMILES: CCC1=C(C)C2=C(c3cc(C4=C5C(C)=C(CC)C(C)=[N+]5[B-](F)(F)n5c(C)c(CC)c(C)c54)cc(C4=C5C(C)=C(CC)C(C)=[N+]5[B-](F)(F)n5c(C)c(CC)c(C)c54)c3)c3c(C)c(CC)c(C)n3[B-](F)(F)[N+]2=C1C
absorption maximum (in C1CCOC1): 534 nm | absorption maximum (in CC#N): 531 nm | absorption maximum (in CN(C)C=O): 539 nm | absorption maximum (in Cc1ccccc1): 537 nm | absorption maximum (in ClC(Cl)Cl): 538 nm

absorption maximum (in ClCCl): 513 nm
SMILES: CCCCCCC1(CCCCCC)c2cc(-c3ccc(-c4ccc(-c5ccc(-c6ccc7c(c6)C(CCCCCC)(CCCCCC)c6cc(-n8c9ccccc9c9ccccc98)ccc6-7)s5)c5nsnc45)s3)ccc2-c2ccc(-n3c4ccccc4c4ccccc43)cc21

absorption maximum (in CC#N): 423 nm
SMILES: C(=C\c1ccc(/C=C/c2cccs2)s1)/c1cccs1

absorption maximum (in CC#N): 340 nm
SMILES: N#Cc1nn(-c2ccccc2)nc1N1CCCC1

absorption maximum (in ClCCl): 310 nm
SMILES: COc1cc2c(cc1OC)C1=C[C@H](c3ccccc3)C3(C(C#N)=C(C#N)N1CC2)c1ccccc1-c1ccccc13

SMILES: Cc1cc(-c2nc(-c3ccccc3)nc(-c3ccccc3)n2)ccc1N1c2ccccc2C2(c3ccccc3-c3ccccc32)c2ccccc21
absorption maximum (in Cc1ccccc1): 394.19 nm

absorption maximum (in ClCCl): 341 nm
SMILES: CCOC(=O)c1c(-c2cc3ccc(OCC=C(C)C)cc3oc2=O)nn(-c2ccccc2)c1C(=O)OCC

absorption maximum (in CC#N): 557 nm
SMILES: CCCn1c2cccc3oc4cccc5c4[c+](c32)c2c1cccc2n5CCC

absorption maximum (in CCOC(C)=O): 435 nm | absorption maximum (in CO): 439 nm
SMILES: CN(C)c1ccc(-c2cc3c(ccc4c([N+](=O)[O-])cccc43)c(=O)o2)cc1

absorption maximum (in C1CCOC1): 403 nm
SMILES: CC(C)(C)c1ccc(C2=C(c3ccc(N4c5ccccc5C(C)(C)c5ccccc54)cc3)S(=O)(=O)c3c2sc(-c2ccc(N4c5ccccc5C(C)(C)c5ccccc54)cc2)c3-c2ccc(C(C)(C)C)cc2)cc1

absorption maximum (in ClCCl): 507 nm
SMILES: COC(=O)c1ccc(C2=C(/C=C/c3ccc(OC)cc3)O[B-](F)(F)[O+]=C2/C=C/c2ccc(OC)cc2)cc1

absorption maximum (in CCO): 301 nm
SMILES: COc1cc(F)c(C(=O)c2cc(F)c(OC)cc2F)cc1F

absorption maximum (in C1CCOC1): 516 nm
SMILES: CC(C)[Si](C#CC1=CC2=c3cc(C#C[Si](C(C)C)(C(C)C)C(C)C)c4nc(C(F)(F)C(F)(F)C(F)(F)F)nc5c(C#C[Si](C(C)C)(C(C)C)C(C)C)cc(c3c54)C3=CC(C#C[Si](C(C)C)(C(C)C)C(C)C)=C4N=C(C(F)(F)C(F)(F)C(F)(F)F)N=C1C4C32)(C(C)C)C(C)C (stereo not given)

absorption maximum (in ClC(Cl)Cl): 394 nm
SMILES: O=C1NC(=O)c2ccc(N3CCOCC3)c3cccc1c23

SMILES: C#CCNC1=C2C=CC=[N+]2[B-](F)(F)n2cccc21
absorption maximum (in C1CCCCC1): 422.5 nm and 426 nm | absorption maximum (in CC(C)=O): 406 nm | absorption maximum (in CCCCO): 406 nm | absorption maximum (in CCCO): 408 nm | absorption maximum (in CCO): 406.5 nm and 406 nm | absorption maximum (in CCOC(C)=O): 408.5 nm | absorption maximum (in CN(C)C=O): 404 nm | absorption maximum (in CO): 405 nm | absorption maximum (in CS(C)=O): 404 nm | absorption maximum (in Cc1ccccc1): 421 nm | absorption maximum (in ClC(Cl)Cl): 418 nm | absorption maximum (in OCC(F)(F)F): 404 nm | absorption maximum (in c1ccccc1): 422 nm

absorption maximum (in CC#N): 392 nm
SMILES: COc1ccc(-c2nc3c([nH]2)C2=CC(=O)S[C@]2(C)[C@@]2(C)SC(=O)C=C32)cc1

absorption maximum (in CS(C)=O): 316 nm
SMILES: c1ccc2[nH]c(-c3cc(-c4nc5ccccc5[nH]4)cc(-c4nc5ccccc5[nH]4)c3)nc2c1

absorption maximum (in CC#N): 460 nm
SMILES: C[C@]12SC(=O)C=C1c1nc(-c3ccccc3)[nH]c1C1=CC(=O)S[C@@]12C

absorption maximum (in CO): 583.65 nm
SMILES: c1cc2c(C3SCCCS3)c3ccc(=[N+]4CCCCC4)cc-3oc2cc1N1CCCCC1

absorption maximum (in ClCCl): 400 nm
SMILES: [O-][n+]1c(/C=C/c2ccccc2)nc(N2CCOCC2)c2c1CCCC2

absorption maximum (in CC#N): 337 nm
SMILES: Brc1ccc(-c2pc3ccccc3s2)cc1 (stereo not given)

SMILES: CC1(C)c2ccccc2N(c2ccc(-c3ncccn3)cc2)c2ccccc21
absorption maximum (in Cc1ccccc1): 359 nm

absorption maximum (in O): 304 nm
SMILES: CCCCn1c(-c2ccc(-c3ccc(-c4ccc(-c5n(CCCC)c6cc(C)ccc6[n+]5CCCC)cc4)cc3)cc2)[n+](CCCC)c2ccc(C)cc21

absorption maximum (in ClC(Cl)Cl): 385 nm
SMILES: CC(C)(C)N1C(=O)c2c(cc3ccc4cccc5ccc2c3c45)C1O (stereo not given)

absorption maximum (in ClCCl): 459 nm
SMILES: c1ccc(N(c2ccccc2)c2ccc(-c3ccc(-c4ccc(N(c5ccccc5)c5ccccc5)cc4)c4nsnc34)cc2)cc1

absorption maximum (in C1CCCCC1): 427 nm | absorption maximum (in CC#N): 451 nm | absorption maximum (in CCO): 458 nm | absorption maximum (in c1ccccc1): 440 nm
SMILES: Nc1cccc2c1-c1ccccc1C2=O

SMILES: CC(C)(C)c1cc2ccc3cc(C(C)(C)C)cc4c3c2c(c1)c(=O)n1c4nc2c3cc(C(C)(C)C)cc4ccc5cc(C(C)(C)C)cc(c5c43)c21
absorption maximum (in C1CCOC1): 395 nm | absorption maximum (in CC#N): 394 nm | absorption maximum (in CC(C)=O): 395 nm | absorption maximum (in CCCCCC): 399 nm | absorption maximum (in CCO): 395 nm | absorption maximum (in CCOC(C)=O): 393 nm | absorption maximum (in CO): 382 nm | absorption maximum (in CS(C)=O): 394 nm | absorption maximum (in Cc1ccc(C)cc1): 396 nm | absorption maximum (in ClC(Cl)(Cl)Cl): 401 nm | absorption maximum (in ClC(Cl)Cl): 401 nm | absorption maximum (in c1ccccc1): 395 nm

SMILES: c1ccc([B-]2(c3ccccc3)Oc3ccc4ccccc4c3-c3c4ccccc4cc[n+]32)cc1
absorption maximum (in Cc1ccccc1): 427 nm

absorption maximum (in CS(C)=O): 432 nm | absorption maximum (in ClC(Cl)Cl): 424 nm
SMILES: CCCCCCN(c1ccccc1)c1ccc(/C=C/c2cc(=O)oc3cc(C)ccc23)cc1

SMILES: N#CC(C#N)=Cc1cn(-c2ccccc2)nc1-c1ccc([N+](=O)[O-])cc1
absorption maximum (in C1CCOC1): 346 nm | absorption maximum (in C1COCCO1): 346 nm | absorption maximum (in CCO): 346 nm | absorption maximum (in CCOC(C)=O): 346 nm | absorption maximum (in CN(C)C=O): 347 nm | absorption maximum (in CO): 345 nm | absorption maximum (in CS(C)=O): 343 nm | absorption maximum (in Cc1ccccc1): 356 nm | absorption maximum (in ClC(Cl)Cl): 352 nm
